From patent US20050239656A1, “Pyridine compounds or salts thereof and herbicides containing the same” (priority 2002, published 2005)

Tests used:
[1] = system: barnyardgrass; test: Test Example 3: paddy pot test, application under submerged conditions; assay type: in vivo, Echinochloa crus-galli L.; conditions: submerged application at 0.5 leaf stage, visually observed 14 days after application, 0 = non-treated, 100 = complete kill
Procedure, shortened: (§1)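 Visual growth-control rating (0 = untreated, 100 = complete kill) 14 days after treatment. The formulated compound, as a diluted wettable powder or emulsifiable concentrate, went into 3–4 cm flood water at a predetermined active-ingredient dose once the weeds reached 0.5 leaf stage (wapato: primary leaf stage).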

[2] = system: soybean; test: Test Example 2: soil surface treatment, upland pot test; assay type: in vivo, Glycine max Merr.; conditions: observed 20th to 28th day
Procedure, shortened: (§2)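 Pre-emergence: the soil surface was sprayed 1 day after sowing with wettable powder or emulsifiable concentrate diluted in water at 1,500 L/ha, at a predetermined active ingredient amount. Growth control was scored visually 20–28 days after treatment, 0 (untreated) to 100 (complete kill).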

[3] = system: prickly sida; test: as above; assay type: in vivo, Sida spinosa L.; conditions: observed 20th to 28th day
Procedure, shortened: as §2

[4] = system: rice; test: as above; assay type: in vivo, Oryza sativa L.; conditions: observed 20th to 28th day
Procedure, shortened: as §2

[5] = system: rice (var. Nihonbare); test: Test Example 3: paddy pot test, transplanted rice; assay type: in vivo, Oryza sativa L.; conditions: applied 4th day after transplantation, visually observed 21st day after application, 0 = non-treated, 100 = complete kill
Procedure, shortened: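 Rice (var. Nihonbare) at 2 leaf stage transplanted 3 cm deep into puddled paddy soil under 3–4 cm flooding; on day 4 after transplanting, diluted wettable powder or emulsifiable concentrate applied by pipette under submerged conditions at a set active-ingredient dose. Growth scored visually 21 days after application, 0 (untreated) to 100 (complete kill) %.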

[6] = system: wheat; test: Test Example 2: soil surface treatment, upland pot test; assay type: in vivo, Triticum spp.; conditions: observed 20th to 28th day
From the text: Upland field soil was put into a 1/170,000 ha pot, and seed of various plants (barnyardgrass, crabgrass, green foxtail, redroot pigweed, prickly sida, velvetleaf, rice, wheat, corn, soybean) were sown. On the 1st day after the sowing, a wettable powder or emulsifiable concentrate having the compound of the present invention formulated in accordance with a usual formulation method, was weighed so that the active ingredient would be a predetermined amount, and diluted with water in an amount of 1,500 L/ha. The herbicide thus adjusted was applied by a small size sprayer for soil surface treatment. On the 20th to 28th days after the application of the herbicide, the growth of the respective plants was visually observed, and the herbicidal effects were evaluated by the growth controlling degrees (%) ranging from 0 (equivalent to the non-treated plot) to 100 (complete kill), whereby the results shown in Table 4, were obtained.

[7] = system: green foxtail; test: as above; assay type: in vivo, Setaria viridis L.; conditions: observed 20th to 28th day
Procedure, shortened: as §2

[8] = system: crabgrass; test: as above; assay type: in vivo, Digitaria sanguinalis L.; conditions: observed 20th to 28th day
Procedure, shortened: as §2

[9] = system: velvetleaf; test: as above; assay type: in vivo, Abutilon theophrasti MEDIC.; conditions: observed 20th to 28th day
Procedure, shortened: as §2

[10] = system: corn; test: as above; assay type: in vivo, Zea mays L.; conditions: observed 20th to 28th day
Procedure, shortened: as §2

[11] = system: barnyardgrass; test: as above; assay type: in vivo, Echinochloa crus-galli L.; conditions: observed 20th to 28th day
Procedure, shortened: as §2

[12] = system: japanese bulrush; test: Test Example 3: paddy pot test, application under submerged conditions; assay type: in vivo, Scirpus juncoides; conditions: submerged application at 0.5 leaf stage, visually observed 14 days after application, 0 = non-treated, 100 = complete kill
Procedure, shortened: as §1

[13] = system: redroot pigweed; test: Test Example 2: soil surface treatment, upland pot test; assay type: in vivo, Amaranthus retroflexus L.; conditions: observed 20th to 28th day
Procedure, shortened: as §2

With `CC(C)C(c1cnccc1C(F)(F)F)N(C)S(=O)(=O)c1ccc(Br)cc1` (racemic) [I-136] the “Growth controlling degree (%) Barnyardgrass” value ([1]; active ingredient 250 g/ha) was 100%, the “Growth controlling degree (%) Soyabean” value ([2]; active ingredient 250 g/ha) was 10% and the “Growth controlling degree (%) Prickly sida” value ([3]; active ingredient 250 g/ha) was 50%. For the same molecule, the “Growth controlling degree (%) Rice” value ([4]; active ingredient 250 g/ha) was 50%, the “Growth controlling degree (%) Rice” value ([5]; active ingredient 250 g/ha) was 0% and the “Growth controlling degree (%) wheat” value ([6]; active ingredient 250 g/ha) was 10%. The “Growth controlling degree (%) Green foxtail” value ([7]; active ingredient 250 g/ha) was 95%, the “Growth controlling degree (%) Crabgrass” value ([8]; active ingredient 250 g/ha) was 90% and the “Growth controlling degree (%) Velvetleaf” value ([9]; active ingredient 250 g/ha) was 30%. For the same molecule, the “Growth controlling degree (%) Corn” value ([10]; active ingredient 250 g/ha) was 20%, the “Growth controlling degree (%) Barnyardgrass” value ([11]; active ingredient 250 g/ha) was 70% and the “Growth controlling degree (%) Japanese bulrush” value ([12]; active ingredient 250 g/ha) was 70%. The “Growth controlling degree (%) Redroot pigweed” value ([13]; active ingredient 250 g/ha) was 10%.

`CC(C)C(c1cnccc1C(F)(F)F)N(C)S(=O)(=O)C=Cc1ccccc1` (racemic) [I-135] was tested, and the “Growth controlling degree (%) Barnyardgrass” value ([1]; active ingredient 500 g/ha) was 98%, the “Growth controlling degree (%) Soyabean” value ([2]; active ingredient 500 g/ha) was 0% and the “Growth controlling degree (%) Prickly sida” value ([3]; active ingredient 500 g/ha) was 50%. For the same molecule, the “Growth controlling degree (%) Rice” value ([4]; active ingredient 500 g/ha) was 20%, the “Growth controlling degree (%) Rice” value ([5]; active ingredient 500 g/ha) was 10% and the “Growth controlling degree (%) wheat” value ([6]; active ingredient 500 g/ha) was 10%. The “Growth controlling degree (%) Green foxtail” value ([7]; active ingredient 500 g/ha) was 70%, the “Growth controlling degree (%) Crabgrass” value ([8]; active ingredient 500 g/ha) was 70% and the “Growth controlling degree (%) Velvetleaf” value ([9]; active ingredient 500 g/ha) was 30%. The “Growth controlling degree (%) Corn” value ([10]; active ingredient 500 g/ha) was 0%, the “Growth controlling degree (%) Barnyardgrass” value ([11]; active ingredient 500 g/ha) was 80% and the “Growth controlling degree (%) Japanese bulrush” value ([12]; active ingredient 500 g/ha) was 100%. The “Growth controlling degree (%) Redroot pigweed” value ([13]; active ingredient 500 g/ha) was 20%.

`CC(C)C(c1cnccc1C(F)(F)F)N(C)C(=O)Cc1ccc(Br)c(F)c1` (racemic) [Compound I-129] was tested, and the “Growth controlling degree (%) Barnyardgrass” value ([1]; active ingredient 250 g/ha) was 100%, the “Growth controlling degree (%) Soyabean” value ([2]; active ingredient 500 g/ha) was 10% and the “Growth controlling degree (%) Prickly sida” value ([3]; active ingredient 500 g/ha) was 70%. The “Growth controlling degree (%) Rice” value ([4]; active ingredient 500 g/ha) was 30%, the “Growth controlling degree (%) Rice” value ([5]; active ingredient 250 g/ha) was 0% and the “Growth controlling degree (%) wheat” value ([6]; active ingredient 500 g/ha) was 30%. The “Growth controlling degree (%) Green foxtail” value ([7]; active ingredient 500 g/ha) was 100%, the “Growth controlling degree (%) Crabgrass” value ([8]; active ingredient 500 g/ha) was 98% and the “Growth controlling degree (%) Velvetleaf” value ([9]; active ingredient 500 g/ha) was 10%. The “Growth controlling degree (%) Corn” value ([10]; active ingredient 500 g/ha) was 30%, the “Growth controlling degree (%) Barnyardgrass” value ([11]; active ingredient 500 g/ha) was 98% and the “Growth controlling degree (%) Japanese bulrush” value ([12]; active ingredient 250 g/ha) was 90%. The “Growth controlling degree (%) Redroot pigweed” value ([13]; active ingredient 500 g/ha) was 40%.

For `CC(=O)N(C)C(c1cnccc1C(F)(F)F)C(C)C` (stereo not drawn) [I-208], the “Growth controlling degree (%) Barnyardgrass” value ([1]; active ingredient 250 g/ha) was 98%, the “Growth controlling degree (%) Soyabean” value ([2]; active ingredient 250 g/ha) was 60% and the “Growth controlling degree (%) Prickly sida” value ([3]; active ingredient 250 g/ha) was 80%. For the same molecule, the “Growth controlling degree (%) Rice” value ([4]; active ingredient 250 g/ha) was 100%, the “Growth controlling degree (%) Rice” value ([5]; active ingredient 250 g/ha) was 70% and the “Growth controlling degree (%) wheat” value ([6]; active ingredient 250 g/ha) was 80%. The “Growth controlling degree (%) Green foxtail” value ([7]; active ingredient 250 g/ha) was 100%, the “Growth controlling degree (%) Crabgrass” value ([8]; active ingredient 250 g/ha) was 100% and the “Growth controlling degree (%) Velvetleaf” value ([9]; active ingredient 250 g/ha) was 50%. For the same molecule, the “Growth controlling degree (%) Corn” value ([10]; active ingredient 250 g/ha) was 70%, the “Growth controlling degree (%) Barnyardgrass” value ([11]; active ingredient 250 g/ha) was 100% and the “Growth controlling degree (%) Japanese bulrush” value ([12]; active ingredient 250 g/ha) was 98%. For the same molecule, the “Growth controlling degree (%) Redroot pigweed” value ([13]; active ingredient 250 g/ha) was 90%.

`CCCOC(=O)N(C)C(c1cnccc1C(F)(F)F)C(C)C` (stereo not drawn) [I-203] was tested, and the “Growth controlling degree (%) Barnyardgrass” value ([1]; active ingredient 250 g/ha) was 100%, the “Growth controlling degree (%) Soyabean” value ([2]; active ingredient 250 g/ha) was 30% and the “Growth controlling degree (%) Prickly sida” value ([3]; active ingredient 250 g/ha) was 60%. The “Growth controlling degree (%) Rice” value ([4]; active ingredient 250 g/ha) was 60%, the “Growth controlling degree (%) Rice” value ([5]; active ingredient 250 g/ha) was 10% and the “Growth controlling degree (%) wheat” value ([6]; active ingredient 250 g/ha) was 30%. For the same molecule, the “Growth controlling degree (%) Green foxtail” value ([7]; active ingredient 250 g/ha) was 98%, the “Growth controlling degree (%) Crabgrass” value ([8]; active ingredient 250 g/ha) was 100% and the “Growth controlling degree (%) Velvetleaf” value ([9]; active ingredient 250 g/ha) was 30%. For the same molecule, the “Growth controlling degree (%) Corn” value ([10]; active ingredient 250 g/ha) was 40%, the “Growth controlling degree (%) Barnyardgrass” value ([11]; active ingredient 250 g/ha) was 100% and the “Growth controlling degree (%) Japanese bulrush” value ([12]; active ingredient 250 g/ha) was 95%. For the same molecule, the “Growth controlling degree (%) Redroot pigweed” value ([13]; active ingredient 250 g/ha) was 80%.

`CC(C)C(c1cnccc1C(F)(F)F)N(C)C(=O)Cc1ccc(Br)cc1F` (racemic) [Compound I-137] was tested, and the “Growth controlling degree (%) Barnyardgrass” value ([1]; active ingredient 250 g/ha) was 100%, the “Growth controlling degree (%) Soyabean” value ([2]; active ingredient 250 g/ha) was 20% and the “Growth controlling degree (%) Prickly sida” value ([3]; active ingredient 250 g/ha) was 50%. For the same molecule, the “Growth controlling degree (%) Rice” value ([4]; active ingredient 250 g/ha) was 40%, the “Growth controlling degree (%) Rice” value ([5]; active ingredient 250 g/ha) was 0% and the “Growth controlling degree (%) wheat” value ([6]; active ingredient 250 g/ha) was 30%. For the same molecule, the “Growth controlling degree (%) Green foxtail” value ([7]; active ingredient 250 g/ha) was 100%, the “Growth controlling degree (%) Crabgrass” value ([8]; active ingredient 250 g/ha) was 98% and the “Growth controlling degree (%) Velvetleaf” value ([9]; active ingredient 250 g/ha) was 50%. For the same molecule, the “Growth controlling degree (%) Corn” value ([10]; active ingredient 250 g/ha) was 10%, the “Growth controlling degree (%) Barnyardgrass” value ([11]; active ingredient 250 g/ha) was 98% and the “Growth controlling degree (%) Japanese bulrush” value ([12]; active ingredient 250 g/ha) was 98%. For the same molecule, the “Growth controlling degree (%) Redroot pigweed” value ([13]; active ingredient 250 g/ha) was 50%.
